Measurements as given in patent publication US10001469B2, “Use of GPR83 to identify pruritus-related substances” (University of Miyazaki, priority 2010, dated 2018).
“Also recorded” adds a separate entry of the source. Non-standard residues stand in square brackets, D forms with d. No end group written: not given here.

What was measured:
[1] = system: pain-related behavior; conditions: cited from earlier work; for suppression of pain-related behavior resulting from SP: Non-patent Documents 1, 2 and 3; for induction of pain-related behavior (e.g., scratching behavior): administered to a rat or a mouse, Non-patent Document 1
[2] = system: intrathecally catheterized rats; conditions: depending on the concentrations of peptides administered, Non-patent Document 7; cited from earlier work
[3] = system: thermal hyperalgesia; conditions: intrathecal administration; Non-patent Documents 7, 9, 10, 11; cited from earlier work
[4] = system: intrathecally catheterized rats; assay: Scratching behavior after intrathecal administration of the peptide alone; format: in vivo, rat; conditions: 10^−3 M (10 nmol/10 μl) intrathecal
Description: 10^−3 M (10 nmol/10 μl) HK-1 and SP, the N-terminal regions (nHK-1 and nSP), and the C-terminal regions (cHK-1 and cSP) were administered to intrathecally catheterized rats via catheters. Ethological changes beginning immediately after administration were evaluated using the number of scratching events during a 5-minute period after each peptide administration as an indicator. Here, the expression “10^−3 M (10 nmol/10 μl) . . . administered” refers to administration of 10 μl (full dose) of a solution containing 10 nmol of a peptide (e.g., nHK-1) (that is, a 10^−3 M solution). The same applies to the following similar expressions. […] In these graphs, the number of scratching events induced by administration of 10^−3 M (10 nmol/10 μl) SP or HK-1 alone is designated as a control, and is specifically designated as 100%.

[5] = system: SP-induced scratching behavior; assay: SP-induced scratching behavior after intrathecal pre-administration of peptide or siRNA; format: in vivo, rat
Description: In addition, the number of scratching events induced by SP administration at 5 minutes after saline administration was designated as a control, and was specifically designated as 100%.
In addition, the number of scratching events induced by SP administration at 5 minutes after saline administration was designated as a control and was specifically designated as 100%.
10^−3 M (10 nmol/10 μl) N-terminal regions (nSP and nHK-1) and the following peptides subjected to substitution were administered to intrathecally catheterized rats via catheters.
5 minutes after administration, the number of scratching events induced by administration of 10^−3 M (10 nmol/10 μl) SP was evaluated. In addition, the number of scratching events induced by administration of 10^−3 M SP at 5 minutes after saline administration was designated as a control and was specifically designated as 100%.
10^−3 M (10 nmol/10 μl) DTrp^2-nSP and DTrp^2-nHK-1 were administered to intrathecally catheterized rats via catheters, and then the number of scratching events induced by administration of 10^−3 M (10 nmol/10 μl) SP was evaluated. […] In addition, the number of scratching events induced by SP administration at 5 minutes after saline administration was designated as a control and was specifically designated as 100%.
siRNA was prepared using an HVJ Envelop Vector Kit (ISHIHARA SANGYO KAISHA, LTD) according to the protocols of the kit. 10 μl of an siRNA solution was administered to intrathecally catheterized rats via catheters. With administration of only HVJ-E and administration of mismatch siRNA as controls, time-course changes in scratching events resulting from SP or HK-1 were evaluated.
Next, NK1R siRNA was intrathecally administered and then SP was intrathecally administered on days 4, 7, 10, and 14. […] The number of SP-induced scratching events was gradually recovered after siRNA administration.

[6] = system: formalin-induced inflammatory pain; assay: Formalin-induced pain behavior (flinching) after intraplantar formalin; format: in vivo, rat; conditions: 10^−2 M (100 nmol/10 μl) peptide intrathecal 5 minutes before 2% formalin; for pain behavior (flinching events) during phase I: 0-10 minutes; for pain behavior (flinching events) during phase II: 10-60 minutes
Description: 10^−2 M (100 nmol/10 μl) nSP and nHK-1, or saline (10 μl) was administered to intrathecally catheterized rats via catheters, and then 5 minutes later, 50 μl of 2% formalin was administered subeutaneously to the hind paws of rats. The number of flinching events (pain behavior) was determined for a 60-minute period after formalin administration, so that the degree of pain was evaluated. During the 10-minute period after formalin administration (referred to as phase I), pain behavior was determined once every 2 minutes (1 minute per determination). During the period from 10 minutes to 60 minutes after formalin administration (referred to as phase 11), pain behavior was determined once every 5 minutes (1 minute per determination), so that the degree of pain was evaluated. During phase I, behavior (phasic pain) resulting from chemical stimulation accompanying formalin administration was observed. During phase II, […] following the phasic pain was observed.
The horizontal axis indicates time (minutes) after formalin administration and the vertical axis indicates the determined number of pain behavior events per minute.
4.5 mM (45 pmol/10 μl) GPR83 siRNA, 4.5 mM (45 pmol/10 μl) NK1R siRNA as target groups, 4.5 mM (45 pmol/10 μl) mismatch siRNA (MM siRNA: negative control), and 10 μl of HVJ-E (reagent for introduction of siRNA) were administered to intrathecally catheterized rats via catheters. On day 4 after administration, 50 μl of 2% formalin was administered subcutaneously to the hind paws of rats. The number of flinching events (pain behavior) was determined for a 60-minute period after formalin administration, so that the degree of pain was evaluated. During the 10-minute period after formalin administration (referred to as phase I), pain behavior was determined once every 2 minutes (1 minute per determination). During the period from 10 minutes to 60 minutes after formalin administration (referred to as phase II), pain behavior was determined once every 5 minutes (1 minute per determination), so that the degree of pain was evaluated. During phase I, behavior (phasic pain) resulting from chemical stimulation accompanying formalin administration was observed. During phase II, tonic pain following the phasic pain was observed.

[7] = system: SP-induced scratching behavior; assay: SP-induced scratching behavior after intrathecal pre-administration of peptide or siRNA; format: in vivo, rat; conditions: 5 minutes before SP
[8] = system: histamine-induced itching; assay: Histamine-induced itching behavior; format: in vivo, rat; conditions: for itching behavior resulting from histamine administration (scratching events, 20 minutes): 10^−2 M (100 nmol/10 μl) peptide intrathecal immediately before s.c. histamine, vs saline
Description: (§1) Immediately after intrathecal administration of 10^−2 M (100 nmol/10 μl) DTrp^2-nSP, DTrp^2-nHK-1, or saline (10 μl) to intrathecally catheterized rats via catheters, an itching inducer (10^−3 M histamine (0.25 mg/50 μl) or 1.13×10^−4 M 5-HT (0.25 mg/50 μl)) was subcutaneously administered to the nape of the neck, and then itching behavior was determined for 20 minutes, thereby evaluating the degree of itching.
(§2) FIG. 8 and FIG. 9 show itching behavior resulting from administration of histamine and 5-HT. The vertical axis indicates the determined number of scratching events for a 20-minute period after histamine and 5-HT administration. The horizontal axis indicates DTrp^2-nSP, DTrp^2-nHK-1, and saline administered.
(§3) 4.5 mM (45 pmol/10 μl) GPR83 siRNA, 4.5 mM (45 pmol/10 μl) NK1R siRNA as target groups, and 10 μl of HVJ-E (reagent for introduction of siRNA) were administered to intrathecally catheterized rats via catheters. On day 4 after administration, itching inducers (10^−3 M histamine (0.25 mg/50 μl) and 1.13×10^−4 M 5-HT (0.25 mg/50 μl)) were each subcutaneously administered to the nape of the neck, itching behavior was determined for a 20-minute period after administration, and thus the degree of itching was evaluated.
(§4) FIG. 15 and FIG. 16 show the results of observing itching behavior resulting from histamine administration and 5-HT administration. The vertical axis indicates the number of scratching events during a 20-minute period after administration of histamine and 5-HT, and the horizontal axis indicates HVJ-E (reagent for introduction of siRNA), GPR83 siRNA, and NK1R siRNA administered.

[9] = system: 5-HT-induced itching; assay: Serotonin (5-HT)-induced itching behavior; format: in vivo, rat; conditions: for itching behavior resulting from 5-HT administration (scratching events, 20 minutes): 10^−2 M (100 nmol/10 μl) peptide intrathecal immediately before s.c. 5-HT, vs saline
Description: as §1, §2, §3, §4

[10] = 10^−3 M (10 nmol/10 μl) peptide intrathecal, administration interval 5 minutes before 10^−3 M SP
[11] = 10^−3 M peptide intrathecal, administration interval 10 minutes
[12] = 10^−3 M peptide intrathecal, administration interval 15 minutes
[13] = assumed in view of Examples 1 to 5, not tested
[14] = 10^−3 M peptide intrathecal, administration interval 20 minutes
[15] = 10^−3 M peptide intrathecal, administration interval 30 minutes

Substance: Arg-Pro-Lys-Pro-Gln-Gln-Phe-NH2 (RPKPQQF-NH2) [SP(1-7)]
- suppression of pain-related behavior resulting from SP [1]: can be suppressed; also recorded: suppress pain-related behavior resulting from SP

Substance: Arg-Pro-Lys-Pro-Gln-Gln-Phe-Phe-Gly-Leu-Met-NH2 (RPKPQQFFGLM-NH2; listed as Homo sapiens) [SP]
- induction of scratching behavior by intrathecal administration [2]: induces scratching behavior
- induction of thermal hyperalgesia [3]: induces thermal hyperalgesia
- induction of pain-related behavior (e.g., scratching behavior) [1]: induces pain-related behavior

Substance: Arg-Pro-Lys-Pro-Gln-Gln-Phe-Phe-NH2 (RPKPQQFF-NH2) [SP(1-8)]
- suppression of pain-related behavior resulting from SP [1]: suppress pain-related behavior resulting from SP

Substance: Arg-Pro-Lys-Pro-Gln-NH2 (RPKPQ-NH2) [nSP]
- scratching behavior on administration of the peptide alone (number of scratching events during a 5-minute period) [4]: no scratching behavior
- suppression of the number of SP-induced scratching events [5, 10]: significantly suppress the number of scratching events; also recorded: an effect of suppressing the number of scratching events was exhibited significantly; also recorded: significant effects of suppressing SP-induced scratching behavior
- suppression of the number of SP-induced scratching events [5, 11]: suppression effect was exhibited to a significant degree
- suppression of the number of SP-induced scratching events [5, 12]: suppression effect disappeared
- pain behavior (flinching events) during phase I [6]: pain behavior decreased significantly
- pain behavior (flinching events) during phase II [6]: pain behavior decreased significantly
- suppression of scratching behavior resulting from SP administration ([7]; 10^−4 M (1 nmol/10 μl) peptide intrathecal): suppressed scratching behavior resulting from SP administration
- suppression of scratching behavior resulting from SP administration ([7]; 10^−5 M (100 pmol/10 μl) peptide intrathecal): suppressed scratching behavior resulting from SP administration

Substance: Arg-Ser-Arg-Thr-Arg-NH2 (RSRTR-NH2) [nHK-1]
- scratching behavior on administration of the peptide alone (number of scratching events during a 5-minute period) [4]: no scratching behavior
- suppression of the number of SP-induced scratching events [5, 10]: significantly suppress the number of scratching events; also recorded: an effect of significantly suppressing scratching behavior; also recorded: significant effects of suppressing SP-induced scratching behavior
- suppression of the number of SP-induced scratching events [5, 11]: suppression effect was exhibited to a significant degree
- suppression of the number of SP-induced scratching events [5, 12]: suppression effect disappeared
- pain behavior (flinching events) during phase I [6]: pain behavior decreased significantly
- pain behavior (flinching events) during phase II [6]: pain behavior decreased significantly
- suppression of histamine-induced itching (assumed) [8, 13]: suppresses
- suppression of 5-HT-induced itching (assumed) [9, 13]: suppresses

Substance: Gln-Phe-Phe-Gly-Leu-Met-NH2 (QFFGLM-NH2) [cSP]
- scratching behavior on administration of the peptide alone (number of scratching events during a 5-minute period) [4]: resulted in scratching behavior

Substance: Gln-Phe-Tyr-Gly-Leu-Met-NH2 (QFYGLM-NH2) [cHK-1]
- scratching behavior on administration of the peptide alone (number of scratching events during a 5-minute period) [4]: resulted in scratching behavior

Substance: Phe-Phe-Gly-Leu-Met-NH2 (FFGLM-NH2) [SP(7-11)]
- induction of pain-related behavior (e.g., scratching behavior) [1]: pain-related behavior is induced

Substance: R[dW]KPQ-NH2 [DTrp^2-nSP]
- suppression of the number of SP-induced scratching events [5, 10]: significantly suppress the number of scratching events
- suppression of the number of SP-induced scratching events [5, 14]: suppression effect was significantly exhibited; also recorded: maintained significant suppression effects
- suppression of the number of SP-induced scratching events [5, 15]: suppression effect disappeared
- itching behavior resulting from histamine administration (scratching events, 20 minutes) [8]: no difference was found in itching behavior
- itching behavior resulting from 5-HT administration (scratching events, 20 minutes) [9]: no difference was found in the degree of itching behavior

Substance: R[dW]RTR-NH2 [DTrp^2-nHK-1]
- suppression of the number of SP-induced scratching events [5, 10]: significantly suppress the number of scratching events
- suppression of the number of SP-induced scratching events [5, 14]: suppression effect was significantly exhibited; also recorded: maintained significant suppression effects
- suppression of the number of SP-induced scratching events [5, 15]: suppression effect disappeared
- itching behavior resulting from histamine administration (scratching events, 20 minutes) [8]: significantly lowered itching events
- itching behavior resulting from 5-HT administration (scratching events, 20 minutes) [9]: significantly lowered the degree of itching behavior
